The record followed here is patent publication US10632135B2, “Orally available compounds, a process for preparing the same and their uses as anti-adhesive drugs for treating E. coli induced inflammatory bowel diseases such as crohn's disease” (CENTRE NATIONAL DE LA RECHERCHE SCIENTIFIQUE, priority 2014, dated 2020).

SMILES strings stand for the structures.

Series [1] relates to Adherent-Invasive E. coli strain LF82 adhesion to intestinal epithelial cells T84. The experiment in a line: Adhesion of Adherent-Invasive E. coli LF82 to intestinal epithelial cells T84 in presence of monovalent compounds (pre-, co- and post-incubation). It is filed as cell-based. On the procedure:
E. coli strain LF82 was isolated from a chronic ileal lesion of a patient with Crohn's disease (CD). Bacteria were grown routinely in Luria-Bertani (LB) broth overnight at 37° C. Intestinal epithelial cells T84 derived from colonic adenocarcinoma were maintained in an atmosphere containing 5% CO2 at 37° C. in DMEM/F12 (50/50) medium supplemented with 10% (v/v) heat-inactivated fetal calf serum (FCS), 1% L-glutamine, 100 000 U·l^−1 penicillin, 100 mg·l^−1 streptomycin, 25 μg·l^−1 amphotericin B.
T84 were seeded in 48-well plates at a concentration of 1.5×10^5 cells per well and grown for 48 h. AIEC LF82 bacteria were incubated 1 h with monovalent compounds prior the cell infection (pre-incubation protocol) or they were added simultaneously onto the cells (co-incubation protocol) in complete medium without antibiotics, containing heat inactivated fetal calf serum (FCS). Monovalent compound 10 was tested at a dose of 100; 10; 1 (and 0.1) μM, compound 5 was tested at a dose of 500; 100; 10 and 1 μM and D-mannose was tested at a dose of 10 000; 1 000; 100 or 10 μM. Cells were infected with AIEC LF82 bacteria at a multiplicity of infection (MOI) of 10 bacteria per cell for 3 h at 37° C.
For the post-incubation protocol, monovalent compounds (same doses than in the pre- and co-incubation assays) were incubated with cells for 3 h after bacterial infection. A washing step was realized before this post-incubation to eliminate non-adherent bacteria.
Monolayers were washed in phosphate-buffered saline (PBS; pH 7.2) and cells were then lysed with 1% Triton X-100 in deionized water. […] Results were expressed as percentages of residual adhesion, considering adhesion level of AIEC LF82 without mannosides treatment as 100%.
D-mannose, compounds 5 and 10 were assessed as putative inhibitors to compete the interaction of CEACAM6 expressed by T84 intestinal epithelial cells with the adhesin FimH of AIEC bacteria following three different protocols: pre-, co- and post-incubation experiments (FIG. 1).

The subject of series [2] is HUV-EC-C, CCD-18Co, MRC-5 and PWR-1E normal cell lines. It is filed as cell-based, Human. As to the method: Compounds 10 and 22′ were extemporaneously dissolved at 100 mM in water to obtain a stock solution.
The final concentrations of compounds 10 and 22′ were 100 nM, 1 μM, 10 μM, 100 μM and 1 mM within wells.
The 4 cell lines were plated at optimal density per well in 96-well plates. Plates were incubated at 37° C. for 24 hours before treatment, in drug-free culture medium.
Cell lines were then incubated for 96 hours at 37° C. under 5% CO2 with the 5 concentrations of compounds 10 or 22′ in 1:10 dilution steps. Each concentration was done in triplicate. Control cells were treated with vehicle alone (water).
The dose response for index of cytotoxicity (IC) is expressed as following: […]
IC50 represents the drug concentration required to obtain 50% of cellular cytotoxicity. The
IC50 determination values were calculated from semi-log curves.

As to `O=C[C@@H](O)[C@@H](O)[C@H](O)[C@H](O)CO` [D-mannose], in series [1] (co-incubation protocol, LF82 MOI 10, 3 h, T84 cells), the “concentration at which a significant decrease in the bacterial adhesion level was obtained” value is on record as 1 000 μM. For the same molecule, the “dose at which adhesion was decreased” value in series [1] (post-incubation protocol) is given as 10 mM. In addition, the “concentration showing a significant inhibitory effect on the bacterial adhesion” value in series [1] (pre-incubation protocol (bacteria incubated 1 h with compound before infection)) came to 100 µM.
Consider `CC(=O)O[C@@]12CO[C@@H]1C[C@H](O)[C@@]1(C)C(=O)[C@H](O)C3=C(C)[C@@H](OC(=O)[C@H](O)[C@@H](NC(=O)OC(C)(C)C)c4ccccc4)C[C@@](O)([C@@H](OC(=O)c4ccccc4)[C@H]21)C3(C)C` [Docetaxel], for which, in series [2], the “cytotoxicity values of the control compound” value is recorded as “consistent with known values of inherent toxicity”.
